Patent publication US20050233984A1, “Composition for preventing or treating degenerative brain diseases comprising a hydrolysate of ginsenosides” (Digital Biotech Co., Ltd., priority 2002, published 2005)

Experiments:
[1] = system: neuroblastoma B103 cell line; test: MTT test: preventing the toxicity of beta-amyloid; format: cell-based; details: for Survival rate (%): B103 cells, beta-amyloid-only control = 100%
Procedure: In order to examine the activities of the compounds prepared in the Reference Example in preventing the toxicity of beta-amyloid, the MTT analysis (Gillardon, F. et al., Brain Research. No. 6: pp. 169-172 (1996)) was carried out as follows.
5×10^3 cells of neuroblastoma B103 cell line (donated by Dr. David Schubert of the Salk Institute, USA) were placed in each well of a 96-well plate with 100 μl of DMEM (Dulbecco's Minimal Eagle's Medium) containing 10% fetal bovine serum (FBS), and cultured at 37° C. under 8% CO2 for 1 day. […] The cells were cultured at 37° C. for 18 hours, treated with 15 μl of MTT solution [10 mg/ml solution of 3-(4,5-dimethyl-2-thiazolyl)-2,5-diphenyl-2H-tetrazolium bromide in phosphate buffered saline (PBS)], and allowed to react at 37° C. for 3 to 4 hours. 100 μl of lysis buffer (10% SDS, 50% dimethylformamide, pH 4.7) was added to the wells, and the cells were cultured overnight at room temperature and relative humidity of 90%. Optical density (OD) of each well was measured at […] and 630 nm, respectively, using a scanning multiwell spectrophotometer, and then the OD value at 630 nm was subtracted from that at 570 nm.
Setting the survival rate of the control group treated only with beta-amyloid as 100%, relative survival rates of the experimental groups treated with compound Y, ginsenosides Mc and Rc, PPD and PPT, respectively, were calculated, and the results are shown in Table 2 and FIG. 1. The obtained values were statistically significant.
When the same procedure as above was repeated except that the cells were treated simultaneously with the test compound and beta-amyloid, or treated with the test compound one hour after the beta-amyloid treatment, the results were almost the same as above.
Further, in order to assess the concentration-dependent activity of a test compound, the above procedure was repeated using PPT at concentrations ranging from […].

beta-secretase = target: T1, beta-secretase (Rattus norvegicus, UniProt P56819); test: β-secretase inhibitory activity, fluorometric, B103 cell extract; format: biochemical
T1 construct: the cells were lysed up with MEST buffer; endogenous in cells; host or cells: B103 neuroblastoma cell extract (Triton X-100 lysate)
Procedure: Peptide H4848 (Bachem), a known suppressor of beta-secretase, was used for a comparative agent and PPT was used as a test compound.
1.5×10^6 cells of neuroblastoma B103 cell line secreting APP were plated on a 100 mm dish with DMEM medium containing 10% FBS, and cultured overnight. Then, the cells were lysed up with MEST buffer (20 mM MES, 0.15 M NaCl, 0.5% Triton X-100, pH 6.0 (Bachem)) to obtain a cell extract.
[…] sodium acetate buffer (pH 4.5), distilled water, beta-secretase inhibitor, 5 μM M2465 (Bachem) as a substrate for beta-secretase and MEST buffer were mixed in order, in amounts as shown in Table 5.
The resulting mixtures were reacted at […] for 2 hours, and then read by a fluorometer with 360 nm excitation and 508 nm emission wavelengths. Enzyme inhibitory activity was determined based on the enzyme activity of the control.

[2] = test compound 1 μM + 25 μM beta-amyloid (25-35), 18 hours
[3] = test compound 1 μM alone, without beta-amyloid

T1 sequence (P56819 46-501): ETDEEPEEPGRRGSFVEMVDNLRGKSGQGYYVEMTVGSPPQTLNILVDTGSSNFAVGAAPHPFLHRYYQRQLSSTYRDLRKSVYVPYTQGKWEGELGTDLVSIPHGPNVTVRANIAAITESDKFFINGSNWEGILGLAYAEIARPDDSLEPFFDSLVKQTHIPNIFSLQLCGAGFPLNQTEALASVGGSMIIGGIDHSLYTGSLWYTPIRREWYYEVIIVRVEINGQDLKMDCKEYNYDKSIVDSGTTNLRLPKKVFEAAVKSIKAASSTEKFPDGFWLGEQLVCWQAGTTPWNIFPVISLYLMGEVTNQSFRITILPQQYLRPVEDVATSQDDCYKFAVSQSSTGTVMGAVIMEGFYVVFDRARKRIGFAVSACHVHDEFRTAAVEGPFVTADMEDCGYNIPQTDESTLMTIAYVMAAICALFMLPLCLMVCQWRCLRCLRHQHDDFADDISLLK

SMILES | Survival rate (%) [1, 2] [%] | Survival rate (%) [1, 3] [%] | concentration-dependent inhibitory activity against beta-amyloid toxicity (in words) ([1]; FIG. 2, PPT concentration series) | Survival rate (%) ([1]; test compound 10 μM + 25 μM beta-amyloid (25-35), 18 hours) | Survival rate (%) ([1]; test compound 10 μM alone, without beta-amyloid) | Enzyme Inhibition (% of control) (beta-secretase; 100 nM PPT) | Enzyme Inhibition (% of control) (beta-secretase; 1 μM PPT) | Enzyme Inhibition (% of control) (beta-secretase; 10 μM PPT) | Enzyme Inhibition (% of control) (beta-secretase; 100 μM PPT) | beta-secretase inhibitory activity versus comparative group (in words) (beta-secretase; comparative group: H4848 100 nM)
CC(C)=CCCC(C)(O)[C@H]1CC[C@]2(C)[C@@H]1[C@H](O)C[C@@H]1[C@@]3(C)CC[C@H](O)C(C)(C)[C@@H]3CC[C@]12C (stereo in doubt) [PPD, protopanaxadiol] | 106.7 ± 6.9 | 137.7 ± 4.8 | – | – | – | – | – | – | – | –
CC(C)=CCC[C@](C)(O)[C@H]1CC[C@]2(C)[C@@H]1[C@H](O)C[C@@H]1[C@@]3(C)CC[C@H](O)C(C)(C)[C@@H]3[C@@H](O)C[C@]12C [PPT, protopanaxatriol] | 106.6 ± 1.2 | 157.4 ± 3.3 | began to show its inhibitory activity at the μM level | 119.7 ± 8.5 | 140.3 ± 6.4 | 0 % of control | 0.6 % of control | 3.31 % of control | 18.1 % of control | as good as the comparative group
